Test results: US8147838B2, “Peptide” (priority 2005, dated 2012)
Residues, ends and D or L forms follow the SMILES beside them. No end group written: not given here.

Columns and labels:
[1] = molecular target: MHC class I allele B*0702 (B7) (Homo sapiens, UniProt P01889); experiment: iScore multi-parametric analysis, B*0702; conditions: level of binding: >0.5, 0.25-0.5, <0.25
Description: (§1) Finally, multiparametric analysis is performed on the results from these assays and an iScore is generated. The iScore represents a measure of the overall quality of peptide-MHC binding, enabling candidate peptides to be ranked in order of binding quality and allowing rational prioritisation of peptides for functional cellular follow-up studies.
As part of the validation of the iTopia system, a panel of overlapping peptides derived from the CMV pp 65 protein were used and their binding properties for the A*0201 allele analysed. A number of T cell epitopes restricted by HLA A*0201 had already been identified (by more conventional methodologies) by other researchers for this protein. In the iTopia study, it was reported that an iScore of: >0.5 represented “good quality binding”; between 0.25 and 0.5 represented “medium quality binding”; and <0.25 represented “poor quality binding”.
(§2) Multi-parametric analysis permits the integration of half-life and ED50 parameters in an integrated iScore. This reflects the capability of a peptide to reconstitute with MHC molecules in a stable complex, defining its overall level of binding i.e. the iScore value represents the overall quality of peptide-MHC binding and is used to rank candidate peptides as an indicator of functional relevance. The lead candidate epitopes for each allele are selected for cellular functional analysis to confirm their biological relevance.

[2] = molecular target: MHC class I allele A*0101 (A1) (Homo sapiens, UniProt P04439, A114D/A174V/A182V/D101N/D185E/E176A/E190D/L180R/Q94H/R68K/S129P/T187R/V100A/V91M/W191G); experiment: iScore multi-parametric analysis, A*0101; assay type: binding; conditions: for iScore, MHC Class I Molecule A*0101: level of binding: >0.5, 0.25-0.5, <0.25
Description: as §1
(§3) As part of the validation of the iTopia system, a panel of overlapping peptides derived from the CMV pp 65 protein were used and their binding properties for the A*0201 allele analysed. A number of T cell epitopes restricted by HLA A*0201 had already been identified (by more conventional methodologies) by other researchers for this protein. In the iTopia study, it was reported that an iScore of: >0.5 represented “good quality binding”; between 0.25 and 0.5 represented “medium quality binding”; and <0.25 represented “poor quality binding”. Six of the 20 peptides which gave a “good” iScore (>0.5) for A*0201, represented previously characterised CMV pp 65 A*0201 epitopes.
(§4) Each MHC class I allele has different binding properties and affinities for peptides which they bind. Therefore, information obtained with HLA A*0201 in which peptides are ranked as good, medium or poor binders using >0.5, 0.25-0.5 and <0.25 as thresholds is not necessarily transferable between alleles. Also, different proteins are likely to have distinct immunogenic profiles and the affinities between peptides and MHC class I molecules will be different between proteins. This may be particularly relevant in the case of self-antigens where immunogenicity is likely to be lower than in foreign proteins.
as §2
(§5) The changes in gradient of the graphs in FIGS. 7 to 10 are indicated by a line which delineates the populations of iScores forming the basis of discrimination for further functional studies.

[3] = molecular target: MHC class I allele A*0201 (A2) (Homo sapiens, UniProt P04439, D140Y/D185E/D98H/E176V/E277Q/G131W/G231S/I119V/I121R/I166T/I218V/L300P/L318F/N151K/N90K/P208A/P217A/Q86G/Q94H/R138H/R169H/T345S); experiment: iScore multi-parametric analysis, A*0201; assay type: binding; conditions: level of binding: >0.5, 0.25-0.5, <0.25
Description: as §1, §3, §4, §2, §5

[4] = molecular target: MHC class I allele A*0301 (A3) (Homo sapiens, UniProt P04439); experiment: iScore multi-parametric analysis, A*0301; assay type: binding; conditions: for iScore, MHC Class I Molecule A*0301: level of binding: >0.5, 0.25-0.5, <0.25; for iScore (iTopia), A*0301: integrates half-life and ED50
Description: as §1, §3, §4, §2, §5

| iScore, MHC Class I Molecule B*0702 [1] | iScore, MHC Class I Molecule A*0101 [2] | iScore, MHC Class I Molecule A*0201 [3] | iScore, MHC Class I Molecule A*0301 [4] | iScore (iTopia), A*0301 [4] | iScore (iTopia), A*0101 ([2]; integrates half-life and ED50) | Compound |
| --- | --- | --- | --- | --- | --- | --- |
| 0 | 0 | 0.061 | 0 | – | – | CSCC[C@H](NC(=O)[C@H](CC(=O)O)NC(=O)[C@H](C)NC(=O)[C@H](CCSC)NC(=O)[C@H](Cc1c[nH]cn1)NC(=O)[C@H](CS)NC(=O)[C@H](CC(=O)O)NC(=O)[C@H](CS)NC(=O)[C@@H](N)C(C)C)C(=O)O [Peptide 149] (H-VCDCHMADM-OH; N-terminus and C-terminus assumed) |
| 0 | 0 | 1.897 | 0.07 | – | – | CC[C@H](C)[C@H](NC(=O)[C@H](C)NC(=O)CNC(=O)[C@@H](NC(=O)[C@@H](N)CC(C)C)[C@@H](C)CC)C(=O)N[C@@H](Cc1ccccc1)C(=O)N[C@@H](CC(C)C)C(=O)N[C@@H](CC(C)C)C(=O)N[C@H](C(=O)O)C(C)C [Peptide 183] |
| – | 0 | 0.386 | 0.372 | 0.375 | – | CC(C)C[C@H](NC(=O)[C@H](Cc1ccc(O)cc1)NC(=O)[C@H](CC(C)C)NC(=O)[C@@H](NC(=O)[C@H](CC(C)C)NC(=O)[C@@H](N)CC(C)C)C(C)C)C(=O)N[C@@H](CC(N)=O)C(=O)N[C@@H](CCCNC(=N)N)C(=O)N[C@@H](CCCCN)C(=O)O [Peptide 186] |
| 0.094 | 0 | 0 | 0 | – | – | ADPRLTNLS [Peptide 204] |
| 0 | 0 | 0.104 | 0 | – | – | ALKVLHNGT [Peptide 135] |
| 0 | 0 | 0.162 | 0 | – | – | AQLPSLRHL [Peptide 116] |
| 0 | 0 | 0.096 | 0 | – | – | EKMRNRVLL [Peptide 164] |
| 0 | 0 | 0.067 | 0 | – | – | ELILNHIVP [Peptide 89] |
| 0 | 0 | 0.139 | 0 | – | – | EVVQGKDRL [Peptide 157] |
| 0 | 0 | 0.051 | 0 | – | – | FEGMVVAAL [Peptide 98, FEGMVVAAL] |
| 0 | 0 | 0.046 | 0 | – | – | GLRRLELAS [Peptide 106] |
| 0 | 0 | 0.384 | 0 | – | – | GMVVAALLA [Peptide 99] |
| 0 | 0 | 0.227 | 0 | – | – | HFLYLPRDV [Peptide 111] |
| 0 | 0 | 0.821 | 0 | – | – | HMADMVTWL [Peptide 151] |
| 0 | 0.357 | 0.24 | 0.189 | 0.189 | 0.357 | HMEGYHYRY [Peptide 198] |

Further lines, the compound ahead of its results:

| Compound | iScore, MHC Class I Molecule B*0702 [1] | iScore, MHC Class I Molecule A*0101 [2] | iScore, MHC Class I Molecule A*0201 [3] | iScore, MHC Class I Molecule A*0301 [4] | iScore (iTopia), A*0301 [4] | iScore (iTopia), A*0101 ([2]; integrates half-life and ED50) |
| --- | --- | --- | --- | --- | --- | --- |
| C[C@H](NC(=O)[C@H](C)NC(=O)[C@@H]1CCCN1C(=O)CNC(=O)[C@H](CCCNC(=N)N)NC(=O)[C@H](CO)NC(=O)[C@H](CS)NC(=O)CNC(=O)CN)C(=O)O [Peptide 2] | 0.012 | 0 | 0.016 | 0 | – | – |
| AARTVKCVN [Peptide 36] | 0.059 | 0 | 0.115 | 0 | – | – |
| ADLSPFAFS [Peptide 78] | 0 | 0 | 0.116 | 0 | – | – |
| AGDGRLRLA [Peptide 6] | 0 | 0 | 0.023 | 0 | – | – |
| APFLASAVS [Peptide 23] | 0.176 | 0 | 0.041 | 0 | – | – |
| APSPLVELI [Peptide 86] | 0.101 | 0 | 0 | 0 | – | – |
| ASVSAPSPL [Peptide 84] | 0.017 | 0 | 0.059 | 0 | – | – |
| AVSAQPPLP [Peptide 26] | 0 | 0 | 0.062 | 0 | – | – |
| AYVRNLFLT [Peptide 46] | 0 | 0 | 0.18 | 0 | – | – |
| CVNRNLTEV [Peptide 39] | 0.093 | 0 | 0.05 | 0 | – | – |
| DGRLRLARL [Peptide 7] | 0.038 | 0 | 0 | 0 | – | – |
| EHLPSLRQL [Peptide 70] | 0 | 0 | 0.046 | 0 | – | – |
| ELAALNLSG [Peptide 60] | 0 | 0 | 0.075 | 0 | – | – |
| FARRPPLAE [Peptide 56] | 0 | 0 | 0.042 | 0 | – | – |
| FLASAVSAQ [Peptide 24] | 0 | 0 | 0.134 | 0 | – | – |
| FSSSAPFLA [Peptide 21] | 0 | 0.023 | 0.116 | 0 | – | – |
| GAFARRPPL [Peptide 55] | 0.359 | 0 | 0.222 | 0 | – | – |
| GLPHIRVFL [Peptide 142] | 0.075 | 0 | 1.39 | 0.319 | 0.319 | – |
| GSRLDEVRA [Peptide 64] | 0 | 0 | 0.13 | 0 | – | – |
| GWVSSSSPT [Peptide 14] | 0 | 0 | 0.044 | 0 | – | – |
